The results in this text go back to patent US20060079497A1, “Lavendamycin analogues and methods of synthesizing and using lavendamycin analogues” (Ball State University, priority 2004, published 2006).

Data set [1] is described as follows: Cytotoxicity assay (MTT), normal murine spleen cells stimulated with concanavalin A. The format is cell-based. The settings on record: normal mouse spleen stimulated with concanavalin A inhibited by 50%, read-out: Mean CC50 (Normal Mouse Spleen) ± SEM (no. of expts). As for the experimental part: (§1) Normal murine spleen cells were washed in HBSS, cultured at 2.5×10^6 or 5×10^6 cells per mL in RPMI 1640 (with Hepes) complete medium with 2 mM-L-glutamine, 1 mM sodium pyruvate, 0.05 mM β-mercaptoethanol, penicillin, streptomycin, and amphotericin B with 10% fetal calf serum and Concanavalin A (ConA) at 2.5 μg/mL in a 96-well microtiter plate. A range of diluted analogs were added to triplicate culture wells and the cells were incubated at 37° C. in 5% CO2. Wells containing cells, media and ConA were used as controls. Forty-eight hours post incubation, 20 μL of the vital dye MTT (3-[4,5-Dimethylthiazol-2-yl]-2,5-diphenyltetrazolium bromide; thiazolyl blue) at 5 mg/mL was added to each well and the cultures re-incubated for 4-6 hours. Following centrifugation, the supernatants were decanted and the stained cells were resuspended in 100 μL of 0.4% HCl acidified isopropanol. The optical densities of each well were read at 600 nm using a Cambridge Technologies series 700 microplate reader. The human lymphocytic cell lines CCRF-CEM (ATCC: HTB 176) and H-9 (ATCC: CCL 119) were subcultured from recently cultured cells grown in complete RPMI 1640 medium as described above but without the β-mercaptoethanol and ConA at 6.25×10^5 and 2×10^6 per mL in a 96 well culture plate. These cell numbers represented log phase and early stationary phase of the freshly cultured cells. As these cell lines rapidly reproduce without mitogenic stimulation, Con A was not used. A range of analogues or media alone was added in triplicate to the cultures and the cultures incubated, pulsed with MTT, harvested and their growth estimated as described above for the murine cultures. The CC50 or the concentration of drug which inhibited cell growth as estimated by MTT formazan production to 50% of that of untreated control cells was determined by linear interpolation for each lavendamycin analog.

For data set [2], the target named is T1, HIV-RT (Human immunodeficiency virus type 1 group M subtype B, UniProt P04585).
T1 construct: 1 unit/mL of HIV-RT (Worthington Biochemical Corp., Freehold, N.J.); purchased Worthington Biochemical Corp., Freehold, N.J
Kind of data set: Two drug combination of AZT-TP and analogues at constant molar ratios in HIV-RT assay (CI and dose reduction index). The format is biochemical. An excerpt: In order to derive the dose reduction index of several of these compounds the method of Chou and Talalay was again employed using the classic isobologram technique. This method also involves the plotting of dose-effect curves for each agent as well as for multiply diluted fixed-ratio combinations of the agents.
The dose reduction index is a measure of how much the dose of each drug in a synergistic combination may be reduced at a given effect level compared with the doses of each drug alone.
The assay procedure described below is adapted from Okada et al. (Okada, H.; Mukai, H.; Inouye, Y; Nakamura, S. “Biological Properties of Streptonigrin Derivatives II. Inhibition of Reverse Transcriptase Activity,” J. Antibiot., 1986, 39, 306-308). The lavendamycin analogs were initially dissolved in DMSO at a concentration of 1 mg/mL. Occasionally, mild sonication and heat were used to dissolve the less soluble compounds. The dissolved analogs were then serially diluted in distilled water to achieve concentrations in the final reaction mixture ranging from 0.5-15 μM. In addition to the lavendamycin analogs, the final reaction mixture contained 100 mM Tris-HCl (pH 8.0), 5 mM MgCl2, 5 mM dithiothreitol, 60 mM NaCl, 0.2 mM [^3H] thymidine triphosphate(5 μCi well), 4 μg/mL poly (rA)-oligo(dT)12-18 (Amersham Pharmacia Biotech, Piscataway, N.J.) and 1 unit/mL of HIV-RT (Worthington Biochemical Corp., Freehold, N.J.) in a total volume of 300 μL. For each assay, the reaction mixture containing 8× buffer, double distilled H2O, ^3HTTP, template-primer and HIV-RT was pre-mixed in a 15-mL sterile tube in quantities required for the particular experiment. After adding the enzyme, the reaction mixture was mixed and kept on ice. The inhibitors, either AZT(Moravek Biochemicals, Brea, Calif.), analogs or both were added to appropriate wells in a 24 well microtiter plate and ddH2O was added to each well to bring the volume of all test wells to 100 μL. Two hundred μL of the chilled reaction mixture was then added to each of the test wells, mixed, and incubated for 1 hr at 37° C. Several control wells with no inhibitors were included on each test plate. After stopping the reactions with 25 μL 0.1 M EDTA, triplicate samples of 15 μL from each test well were spotted on DE81 ion exchange filter paper squares (Whatman Paper, Maidstone, England). After drying, each filter was washed for 10 minutes three times with 5% TCA-NHPO4, three times with 0.6M NaCl-[…] Na Citrate, one time with ddH2O and one time with 95% ethanol. After drying the individual filter papers were added to 5 mL Scintiverse E (Fisher Scientific, Chicago, Ill.) scintillation fluid and the amount of 3H-TTP uptake measured as counts per minute on a Beckman liquid scintillation counter. […] The results were then analyzed using Calcusyn, a windows software program for dose effect analysis designed by T. -C. Chou and M. P. Hayball and published by Biosoft® (UK).

Data set [3] can be described thus: Cytotoxicity assay (MTT), human lymphocytic cell lines, pooled data. The format is cell-based. The settings on record: H-9 and CEM inhibited by 50%, read-out: Mean CC50 (Human Cell Lines) ± SEM (no. of expts). The method, then:
as §1

In data set [4] the test system is tumor. Kind of data set: Antitumor activity (applicant's earlier studies).
Data set [5] in a line: Water solubility in HEPES buffer solution. The format is physicochemical.
For data set [6], the system named is BALB/c mice. Kind of data set: In vivo toxicity of analogue 19 in BALB/c mice. The arrangement: species or system mouse. An excerpt: Analogue 19 was first solubilized in 10% dry DMSO, diluted in water, and given to the mice intraperitoneally in one dose or in two doses per day. Mice were weighed and observed for 3 days following treatment.
Where [7] appears, read: normal murine spleen cells stimulated with concanavalin A.
Setting [8] is: human lymphocytic cell lines CCRF-CEM and H-9, pooled data.

Turning to `CCCCOC(=O)c1cc2c([nH]c3ccccc32)c(-c2ccc3c(n2)C(=O)C(NC(=O)CCC)=CC3=O)n1` [Compound 12, 7-N-n-Butyryidemethyllavendamycin n-Butyl Ester], in data set [1], the CC50 at 48 h worked out at 81 ± 17 µM. Moreover, in data set [2], the “dose reduction in combination with AZT-TP” value (“dose reduction … with AZT-TP” below) is on record as “considerable dose reduction”. In addition, in data set [2] (molar ratio AZT:analogue 1:600), the “CI at HIV-RT Inhibition of 50%” value is given as 0.45 ± 0.06, the “CI at HIV-RT Inhibition of 70%” value was determined as 0.32 ± 0.08, the “Dose Reduction Index (50%) AZT-TP” value stood at 3.0 and the “Dose Reduction Index (50%) analogue” value was 8.2. In data set [2] (molar ratio AZT:analogue 1:857), the “CI at HIV-RT Inhibition of 50%” value is on record as 0.39 ± 0.06, the “CI at HIV-RT Inhibition of 70%” value was determined as 0.32 ± 0.09, the “Dose Reduction Index (50%) AZT-TP” value came to 3.9 and the “Dose Reduction Index (50%) analogue” value is recorded as 7.3. Moreover, the half-maximal cytotoxic concentration (CC50) at 48 h in data set [3] stood at 50 ± 15 µM.

As to `COC(=O)c1nc(-c2ccc3c(n2)C(=O)C(NC(C)=O)=CC3=O)c2[nH]c3ccccc3c2c1C` [Compound 11, 7-acetyllavendamycin methyl ester], the 50% cytotoxic concentration (CC50) at 48 h turned out to be 62 ± 5 µM in data set [1] (setting [7]) and 31 ± 2 µM in data set [3] (setting [8]). Besides, the antitumor activity entry in data set [4] is “highly active antitumor agents”.

Consider `CC(=O)NC1=CC(=O)c2ccc(-c3nc(C(=O)OCCOP(=O)(O)O)cc4c3[nH]c3ccccc34)nc2C1=O` [Compound 19], for which, in data set [5], the Water solubility turned out to be 0.05 mg/1 mL. Moreover, the CC50 at 48 h in data set [1] (setting [7]) was 29 ± 5 µM. In addition, in data set [6] (50 mg/kg as one ip injection), the survival and tolerability result was “survived and tolerated”. Also, in data set [6] (75 mg/kg ip in two injections within twenty-four hours), the survival and tolerability result was “survived and tolerated”. For the same compound, in data set [2], the “dose reduction … with AZT-TP” value is listed as “considerable dose reduction”. In data set [2] (molar ratio AZT:analogue 1:600), the “CI at HIV-RT Inhibition of 50%” value was below 0.1 ± 0.10, the “CI at HIV-RT Inhibition of 70%” value was below 0.1 ± 0.16, the “Dose Reduction Index (50%) AZT-TP” value is recorded as above 100 and the “Dose Reduction Index (50%) analogue” value is on record as above 100. In data set [2] (molar ratio AZT:analogue 1:857), the “CI at HIV-RT Inhibition of 50%” value is listed as below 0.1 ± 0.15, the “CI at HIV-RT Inhibition of 70%” value came to 0.21 ± 0.18, the “Dose Reduction Index (50%) AZT-TP” value is reported as above 40 and the “Dose Reduction Index (50%) analogue” value was above 15. Also, the cytotoxic concentration (CC50) at 48 h in data set [3] (setting [8]) stood at 27 ± 3 µM.

With `CCCCCCCCOC(=O)c1cc2c([nH]c3ccccc32)c(-c2ccc3c(n2)C(=O)C(N)=CC3=O)n1` [Compound 20, Demethyllavendamycin n-Octyl Ester], the half-maximal cytotoxic concentration (CC50) at 48 h in data set [1] amounted to 48 ± 10 µM. The “dose reduction … with AZT-TP” value in data set [2] is recorded as “considerable dose reduction”. In data set [2] (molar ratio AZT:analogue 1:214), the “CI at HIV-RT Inhibition of 50%” value is 0.46 ± 0.11, the “CI at HIV-RT Inhibition of 70%” value is recorded as 0.56 ± 0.22, the “Dose Reduction Index (50%) AZT-TP” value was found to be 4.08 and the “Dose Reduction Index (50%) analogue” value is 4.63. In data set [2] (molar ratio AZT:analogue 1:600), the “CI at HIV-RT Inhibition of 50%” value is on record as 0.49 ± 0.17, the “CI at HIV-RT Inhibition of 70%” value is reported as 0.40 ± .09, the “Dose Reduction Index (50%) AZT-TP” value is recorded as 2.4 and the “Dose Reduction Index (50%) analogue” value worked out at 13.7. Besides, in data set [3], the CC50 at 48 h worked out at 47 ± 14 µM.

`CC(=O)NC1=CC(=O)c2ccc(-c3nc(C(=O)O)cc4c3[nH]c3ccccc34)nc2C1=O` [Compound 18, 7-N-Acetyldemethyllavendamycin]: the Water solubility in data set [5] was 0.05 mg/1 L. In data set [1] (setting [7]), the cytotoxic concentration (CC50) at 48 h was 47 ± 8.5 µM. Further, in data set [2], the “dose reduction … with AZT-TP” value was “considerable dose reduction”. Moreover, in data set [2] (molar ratio AZT:analogue 1:600), the “CI at HIV-RT Inhibition of 70%” value came out at 1.35 ± 0.64, the “Dose Reduction Index (50%) AZT-TP” value was found to be 1.5 and the “Dose Reduction Index (50%) analogue” value is given as 2.6. In addition, in data set [2] (molar ratio AZT:analogue 1:857), the “CI at HIV-RT Inhibition of 70%” value came out at 1.7 ± 1.49, the “Dose Reduction Index (50%) AZT-TP” value was 1.7 and the “Dose Reduction Index (50%) analogue” value was 2.0. Besides, the CC50 at 48 h in data set [3] (setting [8]) was determined as 81 ± 35 µM.

Regarding `CC(=O)NC1=CC(=O)c2ccc(-c3nc(C(N)=O)cc4c3[nH]c3ccccc34)nc2C1=O` [Compound 16, 7-N-Acetyldemethyllavendamycin Amide], the CC50 at 48 h in data set [1] (setting [7]) was determined as 50 ± 7 µM; in data set [3] (setting [8]), 95 ± 45 µM. In addition, the antitumor activity result in data set [4] is reported as “highly active antitumor agents”.
